US20100305136A1, “QUINOLONE ANALOGS DERIVATIZED WITH SULFONIC ACID, SULFONATE OR SULFONAMIDE” (priority 2006, published 2010)

B1: 8762NT: human rDNA-derived DNA oligonucleotide CGGAGGGCGCGCGGGTCGGGGCGGCGGCGGCGGCGGCGGTGGCGGCGGCGGCGGGGGCGGCGGG (nucleic acid)
DNA: CGGAGGGCGCGCGGGTCGGGGCGGCGGCGGCGGCGGCGGTGGCGGCGGCGGCGGGGGCGGCGGG
modifications: chemistry not given here

Molecular target: T1, recombinant nucleolin (Homo sapiens, UniProt P19338)
T1 construct: without the N-terminal acidic stretches domain
T1 sequence (P19338 284-710 limits assumed): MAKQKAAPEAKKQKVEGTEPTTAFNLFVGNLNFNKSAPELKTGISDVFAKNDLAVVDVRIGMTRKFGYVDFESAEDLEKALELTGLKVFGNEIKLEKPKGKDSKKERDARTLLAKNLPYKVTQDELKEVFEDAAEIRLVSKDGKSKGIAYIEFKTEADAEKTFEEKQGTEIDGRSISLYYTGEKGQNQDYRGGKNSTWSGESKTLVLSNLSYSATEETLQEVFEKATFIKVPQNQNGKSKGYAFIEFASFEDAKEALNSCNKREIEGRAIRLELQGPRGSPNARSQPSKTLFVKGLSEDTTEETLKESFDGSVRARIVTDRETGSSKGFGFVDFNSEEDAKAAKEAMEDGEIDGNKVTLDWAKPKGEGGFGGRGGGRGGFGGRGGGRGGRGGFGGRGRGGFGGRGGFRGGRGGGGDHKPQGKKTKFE
Test: Nucleolin/nucleic acid ligand interaction, gel retardation assay
Assay type: binding
Design: key: A “+” represents the weakest nucleolin affinity; a “++++” represents the strongest nucleolin affinity
Details: relative affinity of each nucleic acid ligand for nucleolin; nucleolin ~250 nM, 32P-labeled ligand 10 or 250 nM, 30 minutes at room temperature
Procedure: The following assays can be used to assess the effects of compounds on interactions between nucleolin and nucleic acid ligands capable of forming quadruplex (QP) and hairpin (HP) secondary structures. Nucleic acid ligands tested were a cMyc QP DNA having nucleotide sequence 5′-[…]-3′ and a HP pre-rRNA region to which nucleolin binds, having the sequence 5′-[…]-3′. In the assays, recombinant nucleolin (˜250 nM), which has been fused to maltose binding protein, and has the sequence under accession number NM_005381 without the N-terminal acidic stretches domain, is incubated with each of the two ^32P-labeled nucleic acid ligands (10 or 250 nM). Nucleolin and the nucleic acid ligand are incubated in the presence or absence of a test compound 7 in an incubation buffer (12.5 mM Tris, pH 7.6, 60 mM KCl, 1 mM MgCl2, 0.1 mM EDTA, 1 mM DTT, 5% glycerol, 0.1 mg/ml BSA) for 30 minutes at room temperature.
The resulting complexes are separated on a 6% DNA retardation gel using 0.5× TBE with 20 mM KCl as a running buffer. The assay also can be conducted using nucleic acid ligands derived from human ribosomal DNA, whereby one can identify a compound that selectively modulates formation of a nucleolin/nucleic acid complex that depends on the conformation of the nucleic acid. Sequences of suitable nucleic acids are shown in the preceding example. […] A “+” represents the weakest nucleolin affinity and a “++++” represents the strongest nucleolin affinity. […] Using nucleic acids such as these having known conformational properties, one can identify a compound such as the compounds described herein that selectively interferes with binding of nucleolin to a particular quadruplex structure.

Molecule | Affinity for Nucleolin
8511NT: human rDNA-derived DNA oligonucleotide GGGGGTGGGCGGGCGGGGCCGGGGGTGGG (chemistry not given here) [Compound 8511NT] | ++++
7733T: human rDNA-derived DNA oligonucleotide GGGAGGGGCACGGGCCGGGGGCGGGACGGG (chemistry not given here) [Compound 7733T] | +
8749NT: human rDNA-derived DNA oligonucleotide GGGAGGGCGCGCGGGTCGGGG (chemistry not given here) [Compound 8749NT] | +
11028NT: human rDNA-derived DNA oligonucleotide GGGGCGCGGCGGGGGGAGAAGGGTCGGGGCGGCAGGGG (chemistry not given here) [Compound 11028NT] | +
6183NT: human rDNA-derived DNA oligonucleotide GGGTCGGGGGCGGTGGTGGGCCCGCGGGGG (chemistry not given here) [Compound 6183NT] | +
B1 | ++++
